Test results from paper PMC12091851, “Replacing a Cereblon Ligand by a DDB1 and CUL4 Associated Factor 11 (DCAF11) Recruiter Converts a Selective Histone Deacetylase 6 PROTAC into a Pan‐Degrader” (Chemmedchem, 2025).

Columns and labels:
MM.1S cells = assay: CellTiter-Glo cell viability assay; format: cell-based, human; conditions: for EC50: Homo sapiens, MM1.S, 72 h, n.e.: no effect (≤25 % effect up to 50 μM), read-out: EC50 MM.1S; for antiproliferative activity reduced compared to vorinostat by a factor: MM.1S cells
Protocol: For this purpose, the dilution series were prepared in 200-fold concentration in DMSO and further diluted to 10-fold concentration in medium. The final DMSO concentration was 0.5%. The toxicity of compounds was determined after 72 h using the CellTiter-Glo 2.0 Cell Viability Assay (Promega, Madison, WI, USA, #G9242) according to the manufacturer´s protocol. Subsequently, the luminescence was measured using a Tecan Spark (Tecan Group AG, Maennedorf, Swiss) and the half maximal effective concentration (EC50) was determined by plotting dose response curves and nonlinear regression with GraphPad Prism (GraphPad Software, San Diego, CA, USA). […] Cellular HDAC Inhibition Assay […] with minor changes. […] The DMSO-stock solutions were used to perform a serial dilution in DMSO. […] 10 µL of the substrate solution was added and incubated for 3 h under cell culture conditions. […] S8

MDA-MB-231 cells = assay: MTT cell viability assay; format: cell-based, human; conditions: 72 h, n.e.: no effect (≤25 % effect up to 50 μM); for EC50: Homo sapiens, MDA-MB-231
Protocol: (§1) GraphPad Prism (GraphPad Software).
(§2) 2.8. MTT Cell Viability Assay
(§3) U-87MG cells (3 × 10^3 cells/well) or MDA-MB-231 cells (5 × 10^3 cells/well) were seeded in 96-well flat-bottomed plates. After 24 h the cells were incubated with the stock solutions of the respective compounds dissolved in DMSO (highest DMSO concentration, 0.5%) to reach the final concentrations as indicated. Controls received DPBS or DMSO. Following a 71 h incubation period 20 µl of a freshly prepared 5 mg/ml MTT (3-(4,5-dimethylthiazol-2-yl)-2,5-diphenyltetrazolium bromide, AppliChem GmbH, Darmstadt, Germany) solution were added into each well. The supernatant was discarded after 1 h incubation at 37 °C and the precipitated formazan was dissolved in 200 µl DMSO/well. Absorption was measured at 570 nm with background subtraction at 690 nm using a photometric microplate reader (Thermo Scientific Multiskan EX, Thermo Fisher Scientific). Data was further subtracted by the DMSO control and normalized on DPBS. The half-maximal effective concentration (EC50) was determined by plotting dose response curves and nonlinear regression with GraphPad Prism (GraphPad Software). […]

U-87MG cells = assay: MTT cell viability assay; format: cell-based; conditions: Homo sapiens, 72 h, n.e.: no effect (≤25 % effect up to 50 μM)
Protocol: as §1, §2, §3

HDAC1 = HDAC1 (Homo sapiens, UniProt Q13547); assay: Simple Western immunoassay, HDAC1 levels in MM.1S cell lysates; format: cell-based; design: endogenous in cells; host or cells: MM.1S; conditions: MM.1S cells, 10 μM; for reduction of HDAC1 levels: 24 h
Sequence of HDAC1 (Q13547 whole entry): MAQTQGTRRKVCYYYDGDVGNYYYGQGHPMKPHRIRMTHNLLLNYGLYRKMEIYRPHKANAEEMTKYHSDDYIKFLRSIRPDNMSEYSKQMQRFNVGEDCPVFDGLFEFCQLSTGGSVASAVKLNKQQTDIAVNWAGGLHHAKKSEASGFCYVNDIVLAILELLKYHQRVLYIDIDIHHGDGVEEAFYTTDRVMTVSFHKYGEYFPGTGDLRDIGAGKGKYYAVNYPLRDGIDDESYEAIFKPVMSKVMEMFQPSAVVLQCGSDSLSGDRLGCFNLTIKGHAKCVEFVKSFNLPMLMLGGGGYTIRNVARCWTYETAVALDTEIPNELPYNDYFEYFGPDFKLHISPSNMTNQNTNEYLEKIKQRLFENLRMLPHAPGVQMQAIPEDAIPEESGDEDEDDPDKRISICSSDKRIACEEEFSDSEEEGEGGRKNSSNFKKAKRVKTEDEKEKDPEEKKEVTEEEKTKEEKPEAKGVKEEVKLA
Protocol: Figure 3 Initial degradation screening of HDAC1 and 6 by DCAF11‐recruiting PROTACs by Simple Western™ immunoassay analysis of MM.1S cell lysates. MM.1S cells were treated with the indicated compound (10 μM) or vehicle (DMSO) for 24 h. […] Bottom: Representative images from a total of n=3 biological replicates, labeled with spacer type; w/o: without spacer.
2. Biological Experiments
No unexpected or unusually high safety hazards were encountered.
The human multiple myeloma cell line MM.1S (CRL-2974) was obtained from American Type Culture Collection (ATCC, Manassas, VA, USA). The semi-adherent cells were cultivated in RPMI 1640 medium (Catalog#21875-034, Gibco, ThermoFisher Scientific Inc., Waltham, MA, USA) supplemented with 10% FBS (PAN Biotech GmbH; Aidenbach, Germany), 100 IU/mL penicil lin, 0.1 mg/mL streptomycin (PAN Biotech GmbH) and 1 mM sodium pyruvate (ThermoFisher Scientific Inc.). […]
(PAN Biotech GmbH). All cells were cultured at 37 °C in a 5% CO2 atmosphere. Incubation times, as part of assay protocols, were performed under these conditions as well. The semi-adherent MM.1S were detached mechanically by using a cell scraper and the adhered […] were trypsinased by trypsin/EDTA (0.05%/0.02% in DPBS, PAN Biotech GmbH) whereas the U-87MG were detached by […]
2.2. Simple Western™ Immunoassay
For the cell lysates, MM.1S (0.5 × 10^6 cells/mL) or U-87MG (0.18 × 10^6 cells/mL) cells were seeded and incubated with the indicated concentration of compound or vehicle (DMSO) for the given time. The adherent cells were cultured for 24 h under cell culture conditions for attachment before treatment. Cell lysis was performed with Cell Extraction Buffer (10 mM Tris, pH 7.4, 100 mM NaCl, 1 mM EDTA, […]
SDS, 0.5% deoxycholate; Catalog# FNN0011, Thermo Fisher Scientific Inc., Waltham, MA, USA) with addition of Halt Protease Inhibitor Cocktail (100×) (Catalog# 78429, Life Technologies GmbH, Carlsbad, CA, USA) and phenylmethanesulfonyl fluoride (Catalog# 10837091001, Sigma-Aldrich, St.
Louis, MO, USA) according to manufacturer´s instructions. Protein content was determined by Pierce™ BCA Protein Assay Kit (Catalog# 23225, Thermo Fisher Scientific Inc.) according to manufacturer´s guidelines. Cell lysates were diluted to a final concentration of 1 mg/mL and denatured according to manufacturer’s guidelines. Anti-HDAC1 (Catalog# 5356S, Cell Signaling Technology, Denver, MA, USA), anti-HDAC6 (Catalog#7558S, Cell Signaling Technology) and anti-GAPDH (Catalog# 2118S, […]
Fluorescence Separation 8x25 Capillary Cartridges (Catalog# SM-FL004-1, Protein Simple, Bio-Techne, Minneapolis, MN, USA) were used for separation and the Anti-Mouse Detection Module (Catalog# DM-002, Protein Simple) was used for detection with addition of 20x Anti-Rabbit HRP […]
Conjugate (Catalog# 043-426, Protein Simple) according to manufacturer´s instructions. The assay was performed with the Jess Simple Western System (catalog# 004-650, Protein Simple), according to manufacturer´s settings. Evaluation and quantification was performed with the compass software (6.2.0, Protein Simple). GraphPad Prism (GraphPad Software, San Diego, CA, USA) was used for normalization, statistical analysis and bar graph creation. Significance testing was performed with a one-way analysis of variance (ANOVA). […]
of each mean compared to a reference mean value. […]
AMC (Catalog# 233691-67-3, BLD pharma) was prepared with and without IGEPAL CA-630 (0.5%, Catalog# J61055, Alfa Aesar). 10 µL of the substrate solution was added and incubated for 3 h under cell culture conditions. The reaction was stopped with 100 µL of stop solution (50 mM Tris-HCl, […]
Trypsin) and incubated for 1.5 h under cell culture conditions. The fluorescence signal was measured by a FLUOstar OPTIMA microplate reader (BMG labtech, Ortenburg, Germany) at excitation of λ = 355 nm and emission of λ = 460 nm. All Compounds were tested in two independent experiments in duplicates and IC50 was determined by nonlinear regression with GraphPad Prim.

EC50 (MM.1S cells)	EC50 MDA-MB-231 (MDA-MB-231 cells)	EC50 MDA-MB-231 (MDA-MB-231 cells; listed as 1j‐nc)	EC50 (U-87MG cells)	EC50 (MDA-MB-231 cells)	reduction of HDAC1 levels (HDAC1)	time dependent degradation of HDAC1 (HDAC1; after 6 h)	Structure (SMILES)	effect on HDAC1 protein levels (HDAC1; 14 h)	antiproliferative activity reduced compared to vorinostat by a factor (MM.1S cells)
8600 ± 1500 nM	n.e.	no activity	43 ± 18 µM				O=CN(CCCCCCCCCCCC(=O)Nc1ccc(C(=O)NCCCCCCC(=O)NO)cc1)C(C(=O)NCc1ccccc1)c1ccc(Cl)c(Cl)c1 (stereo not shown) [Compound 1j-nc]	not able to affect the protein levels of HDAC1 and 6	
2800 ± 100 nM			30 ± 5 µM	28 ± 10 µM	71%	significant degradation	O=C(CCCCCCNC(=O)c1ccc(NC(=O)CCCCCCCCCCCN(C(=O)CCl)C(C(=O)NCc2ccccc2)c2ccc(Cl)c(Cl)c2)cc1)NO (stereo not shown) [Compound 1j]		3 – 6
1500 ± 100 nM			12 ± 3 µM	8.8 ± 3.2 µM	55%		O=C(CCCCCCNC(=O)c1ccc(N(C(=O)CCl)C(C(=O)NCc2ccccc2)c2ccc(Cl)c(Cl)c2)cc1)NO (stereo not shown) [Compound 2]		3 – 6
